Patent US10351519B2, “Sulfamate derivative compounds, processes for preparing them and their uses” (BIO-PHARM SOLUTIONS CO., LTD., priority 2016, dated 2019)

Assays:
Format in all cases: in vivo
Sprague-Dawley rats = assay: Antiallodynic activity on Complete Freund's Adjuvant (CFA)-induced inflammatory pain model; conditions: intraperitoneally; for response vs control in vivo at 50 mg/kg / ED50: Rattus norvegicus, ip; for response vs control in vivo at 50 mg/kg: read-out: CFA-induced pain model efficacy %; for ED50: at peak time
ICR mice [1] = assay: Anti-epilepsy activity, MES test, mouse; conditions: for ED50: po
How it was run: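 Maximal electroshock delivered through corneal electrodes at 60 Hz for 0.2 s: 50 mA for male ICR mice (19–25 g), 150 mA for male SD rats (100–130 g). Compounds given orally in 30% PEG 400 or 20% Tween 80 in saline, tested at peak time, three doses per compound. ED50 for seizure protection derived by Litchfield–Wilcoxon log-probit analysis.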

ICR mice [2] = assay: Anti-epilepsy activity, scPTZ test, mouse; conditions: for ED50: ip
From the text: In this experiment, each test compound sample was formulated as described in Biological Experimental Example I, and administered intraperitoneally to the test animals (mice; ICR or Rat; SD); Experimental animals, male ICR mice and male SD rats, were purchased from OrientBio or Nara biotech, Korea, and housed 4-5 mice per a cage for 4-5 days. The range of mice body weight was used between 19 and 26 grams and range of rats body weight was used between 100 and 130 grams. After Peak time (0.5, 1, 2 and 4 hr) from the administration, PTZ (Pentylenetetrazol) was administered subcutaneously in the concentration capable of inducing 97% intermittent convulsions (mice: 76-110 mg/kg·bw, 10 μl/g, or rats: 79-110 mg/kg·bw, 2 μl/g). If clonic seizure was not observed for at least 30 minutes in the PTZ administered animal, it can be considered that the test compound has anti-epilepsy activity. The median effective dose (ED50) is determined using 6 animals per a concentration (total three different concen-trations), and calculated by Litchfield and Wicoxon log-probit method which is a dose-response relationship.

SD rats = assay: Anti-epilepsy activity, MES test, rat; conditions: for ED50: Rattus norvegicus, po
Method: In the MES test (Ref., G. Villetti et al. Neuropharmacology 40 (2001) 866-878), an electrical stimulus (mice: 50 mA, 60 Hz, 0.2 sec, and rats: 150 mA, 60 Hz, 0.2 sec in the test animal) supplied by an 11A Shocker (IITC Life Science Company) was delivered through corneal electrodes. All mice or rats assigned to any electroshock at peak time were treated with each test compound sample which was dissolved in 30% PEG 400 or 20% tween 80 prepared by saline solvent applied orally before the test. […] Three doses of the test sample were administered orally to 9-18 animals (3-6 mice per dose) for evaluating the respective doses at which 50% of the animals were protected from seizure (ED50). The ED50 value (median effective dose) was calculated by Litchfield and Wicoxon log-probit method which is a dose-response relationship. Experimental animals, male ICR mice and male SD rats, were purchased from OrientBio, Samtako, or Nara Biotech, Korea, and housed in cages (4-5 mice or 3 rats per cage) for 4-5 days. The range of mice body weight was between 19 and 25 grams and range of rats body weight was between 100 and 130 grams.

ICR mice [3] = assay: Chemical induced seizure model (PIC, picrotoxin); conditions: for ED50: Mus musculus, ip
Method: Picrotoxin (PIC) were used to induce the behavioral seizures in the experiments. Male ICR mice (purchased from Orient Bio Inc. Korea) of body weight 19-26 g (mice) were used for these studies. The test materials were administered intraperitoneal (ip) route in a volume of 10 ul/g (mice) weight in mice, respectively. Pharmacological effects of the test materials were evaluated to compared test groups (n=6) with a control group (n=6). Control group was administrated vehicle, only. The peak time was determined by administration of test material's random dose for 0.5, 1, 2, 4 hour. The time that the most protect was defined as a peak time and ED50 was determined by other dose administration at the peak time. Chemical (PIC) was dissolved in 0.9% saline and administered subcutaneously (s.c.) at its CD97 (convulsive dose 97%), the dose of Chemical (PIC) that produced clonic seizures in 97% into a loose fold of skin in the midline of the neck in a volume of 10 ul/g (mice) body weight. The animals were then transferred to observation cages and observed continuously for 45 min (PIC). Clonic seizure was elicited in approximately 97% of control group. Protection was defined as a complete absence of clonic seizure over the 45-min observation period. The effective dose of compound necessary to protect against generalized convulsive seizures to 50% of controls (i.e. ED50) was determined by log probit analysis using SPSS software program (SPSS Inc.). (Reference; White H. S., J. H. Woodhead, K. S. Wilcox, J. P. Stables, H. J. Kupferberg, and H. H. Wolf. General Principles; Discovery and Preclinical De-velopment of Antiepileptic Drugs. In: R. H. Levy, R. H. Mattson, B. S. Meldrum, and E. Perucca, eds. Antiepileptic Drugs, 5th Ed. Lippincott Williams & Wilkins, Philadelphia 2002: pp. 36-48.) The obtained results are shown in following Table 10.

Compound	response vs control in vivo at 50 mg/kg (Sprague-Dawley rats)	CFA-induced pain model Peak Time (Sprague-Dawley rats)	MES test (po) Peak time (ICR mice [1])	ED50 (ICR mice [1])	scPTZ test (ip) Peak time (ICR mice [2])	ED50 (ICR mice [2])	MES test (po) Peak time (SD rats)	ED50 (SD rats)	PIC(ip) Peak Time (ICR mice [3])	ED50 (ICR mice [3])	ED50 (Sprague-Dawley rats)
C[C@@H](OS(N)(=O)=O)[C@H](O)c1ccccc1Cl [Example 2, (1R, 2R)-1-(2-chlorophenyl)-1-hydroxypropan-2-yl sulfamate]	23%	1 h	2 h	22.8 mg/kg	1 h	18.2 mg/kg	(2 h)	5 mg/kg	1 h	24.1 mg/kg	
C[C@H](OS(N)(=O)=O)[C@@H](O)c1c(Cl)cccc1Cl [Example 7, (1S, 2S)-1-(2,6-dichlorophenyl)-1-hydroxypropan-2-yl sulfamate]		1 h	1 h	40.7 mg/kg	0.5 h	8.6 mg/kg	(2 h)	23.5 mg/kg	0.5 h	28.5 mg/kg	31.9 mg/kg
COCO[C@H](c1ccccc1Cl)[C@@H](C)OS(N)(=O)=O [Example 70, (1R, 2R)-1-(2-chlorophenyl)-1-(methoxymethoxy)propan-2-yl sulfamate]	23.7%	0.5 h	2 h	50.5 mg/kg	2 h	50.2 mg/kg	(1 h)	46.6 mg/kg			
C[C@@H](OS(N)(=O)=O)[C@H](O)c1c(Cl)cccc1Cl [Example 8, (1R, 2R)-1-(2,6-dichlorophenyl)-1-hydroxypropan-2-yl sulfamate]		0.5 h	2 h	27.9 mg/kg	1 h	13.5 mg/kg	(1 h)	24 mg/kg	1 h	73.9 mg/kg	52.7 mg/kg
